Consider 5 molecules from patent US12514845B2, “Ionic-liquid-based formulations for the prevention or treatment of neurological diseases” (Universidade De Aveiro, priority 2022, dated 2026).

The test system of data set [1] is male wistar rats exposed to PQ. Format: in vivo. As to conditions: PQ 2.5 mg/kg/day subcutaneous 4 weeks. As for the experimental part: (§1) In an embodiment, the biological neuroprotective effect of [Chol]2[N1(4)inh]+N1(4)inh+N1(4)inh when administrated via brain intraventricular infusion route was evaluated in a rat model for PD induced by the exposure to a low chronic dose of PQ, through the analysis of the progression of behavior dysfunction. In this model, the animals are exposed to the toxin during 30 days (4 weeks) and then keeped alive during more 30 days to allow the pathology to progress (Total 8 weeks). The administration of [Chol]2[N1(4)inh]+N1(4)inh started after the first 30 exposure to PQ, via brain intraventricle or intranasal route and lasted the second 30 days. Animals were euthanized at week 8.
In an embodiment, male wistar rats 8-12 week-old were housed in a temperature/humidity-controlled environment under 12 h light/dark cycle with free access to water and food and subjected to subcutaneous chronic administration of PQ, that was carried out using osmotic minipumps (Alzet Durect, Cupertino, CA) at a dose of 2.5 mg/kg/day with a fluid delivery rate of 0.25 μL/hr for a period of four weeks (Alzet model 2004, large pumps). Control groups were implanted with minipump filled with sterile saline, the vehicle used to dissolve PQ. […] Once the rat skull was exposed and, using a digital coordinates system, the infusion sites were determined setting the zero at the bregma point. […] To evaluate the neuroprotective function of the IL-based formulation when infused in brain ventricle, behavior function was evaluated. Motor coordination, balance and grip strength were analyzed using a rat rotarod apparatus model 47700 (Ugo Basile, Comerio, Italy). […] The training was performed in 2 consecutive days, on each day 4 test trials were assessed, each lasting 5 min. […] The rotarod test was performed under an accelerating protocol (4-40 RPM) for 5 min, and the latency to fall was recorded using a specific software. […]

The subject of data set [2] is male wistar rats exposed to PQ. Format: in vivo. The conditions noted are these: PQ 2.5 mg/kg/day subcutaneous 4 weeks, week 8, vs control group (FIG. 22). As for the experimental part:
as §1, with “via intranasal” for “via brain intraventricular infusion”, “in” for “in a”, “of PQ and” for “of PQ,”
In an embodiment, male wistar rats 8-12 week-old subjected to subcutaneous chronic administration of PQ, that was carried out using osmotic minipumps (Alzet Durect, Cupertino, CA) at a dose of 2.5 mg/kg/day with a fluid delivery rate of 0.25 μL/hr for a period of four weeks (Alzet model 2004, large pumps). […] To evaluate the neuroprotective function of the IL-based formulation when administrated via intranasal route, behavior function was evaluated. Motor coordination, balance and grip strength were analyzed using a rat rotarod apparatus model 47700 (Ugo Basile, Comerio, Italy). […] The training was performed in 2 consecutive days, on each day 4 test trials were assessed, each lasting 5 min. […]

The nature of a further data set: in vitro. As to conditions: rat.
Data set [3] deals with dopaminergic neurons in the substantia nigra (SN). The data set can be described thus: 6OHDA intrastriatal injection mouse model of PD, TH+ neuron count in SN. Format: in vivo. The conditions noted are these: 6-OHDA 10 μg/2 μL right striatum, day 7, vs control group (FIG. 10). As for the experimental part:
In an embodiment, the biological neuroprotective effect of [Chol]2[N1(4)inh]+N1(4)inh+N1(4)inh when administrated via brain intraventricular infusion route was evaluated in an mouse model for PD induced by the intracerebral injection of 6OHDA, and the number of dopaminergic neurons in the substantia nigra counted.
In an embodiment, Male C57BL/6 mice were anesthetized and placed in the digital stereotaxic frame. Once the mouse skull was exposed, and using a digital coordinates system, injection and infusion sites were determined setting the zero at the bregma point. Hereupon, an injection of 6-OHDA (10 μg/2 μL of ascorbic acid 0.1% v/v) was performed in the right striatum (ST) of each animal using the coordinates: medial-lateral (ML): −2 mm; anterior-posterior (AP): 0.6 mm; dorsoventral (DV): −3.0 mm, using a Hamilton syringe at speed of 0.2 μL/min. The delivery of 0.2 mg/kg/day of [Chol]2[N1(4)inh]+N1(4)inh+N1(4)inh was performed as describe above. […]
The results are expressed as a percentage of Saline (Group (1) which are animals exposed only to saline solution) and represented as the mean±SEM of at least 3 independent experiments (n=3-4). […]

Data set [4] concerns N27 dopaminergic neuronal cells exposed to MPP+. The conditions noted are these: 24 h (FIG. 8).
From the text: The data are presented as percentage of control as the mean±SEM of at least five repetitions of three independent experiments (n=3).
The test system of data set [5] is N27 dopaminergic neuronal cells exposed to 6OHDA. As to conditions: 20 μM pretreatment 2.5 h before 50 μM 6OHDA, 24 h (FIG. 7).
Method: (§2) The data are presented as percentage of control and presented as the mean±SEM of at least five repetitions of three independent experiments (n=3). Statistical analysis was performed using one-way ANOVA (non-parametric analysis), followed by the Kruskal-Wallis test, followed by Dunn's multiple comparison test. **p<0.01 compared to CTR or the group of cells exposed to cholinium chloride only +++p<0.001 compared to 6OHDA.
The subject of another data set is dopaminergic neurons. As to conditions: PD models; Afonso 2017; cited from earlier work.
The conditions of data set [6]: Afonso 2017, MSc thesis; cited from earlier work.

SMILES strings stand for the structures. Read-outs that look alike come from different tables or passages of the source.

Method for in vitro: as §2

In the case of `C[n+]1ccc(-c2cc[n+](C)cc2)cc1` [PQ, paraquat], the “reduction in the distance travelled (open-field)” value in data set [1] (week 8, vs control (FIG. 20)) was determined as 55%. Also, the “reduction of speed (open-field)” value in data set [1] (week 8, vs control (FIG. 21)) is reported as 50%. The “reduction in the latency to fall (rotarod)” value in data set [1] (week 8, vs control group (FIG. 19)) was 43%; in data set [2], 47%.
In the data set “in vitro”, `NCCc1cc(O)c(O)cc1O` [6OHDA, 6-hydroxydopamine] registered a cytotoxicity at 24 h, 50 µM of 45%. In addition, the “reduction in the number of SN dopaminergic neurons” value in data set [3] came out at 45%.
For `C[N+](C)(C)CCO.[Cl-]` [cholinium chloride], the “prevention of MPP+ dopaminergic neurotoxicity (cell viability)” value in data set [4] (20 μM pretreatment 2.5 h before 10 μM MPP+) is on record as “did not exert any protective effect”. Also, the “prevention of 6OHDA-induced neurotoxicity (cell viability)” value in data set [5] is on record as “not prevented”.
Turning to `C[n+]1ccc(-c2ccccc2)cc1` [MPP+, 1-methyl-4-phenylpyridinium], the “loss of N27 cells viability” value in data set [4] (10 μM MPP+) was found to be 45%.
Consider `COc1cc(C(C)=O)ccc1[O-].C[N+](C)(C)CCO` [[Chol][Apo], cholinium apocynate], for which the “6OHDA-induced toxicity in dopaminergic neurons” value in the data set on dopaminergic neurons was “significant reduction”. Besides, the “increase in water solubility versus Apo” value in data set [6] was 50 fold.
